Laboratory results from US20030021796A1, “Method of enhancing T cell immunity by selection of antigen specific T cells” (priority 2001, published 2003).
Entries after “also recorded” stand apart in the source; their conditions may differ. Residues, ends and D or L forms follow the SMILES beside them.

How the values were obtained:
[1] = system: transgenic CD4^+ thymocytes; assay: Positive selection of CD4^+ thymocytes after peptide injection into TCR^TgTCRα^−H2-M^−Ii^− mice (flow cytometry of thymus); format: in vivo, mouse; conditions: for positive selection of transgenic thymocytes: i.p., non-deleting dose (20 μg); for percentage of CD4^+ single positive cells (thymus): 3 days after peptide injection; for effect on thymic selection: exogenous peptides without agonist properties
From the text: Mice. The TCR genes were cloned from T cell hybridoma specific for analogs of the PCC(43-58) peptide and expressed in VA-hCD2 cassette (Ignatowicz et al., 1997; Kraj et al., 2001; Zhumabekov et al., 1995). All TCR transgenic mice were made by co-microinjection of the respective […] and TCRβ constructs into fertilized eggs of F1 (C57BL/6×CBA/Ca) mice. TCR Tg mice were crossed to C57B16/TCRα^− (Jackson Laboratory, ME) mice and to mice deficient in H2-M (kindly provided by E. Bikoff and R. Germain) and Ii (kindly provided by L. van Kaer) to obtain TCR^TgTCRα^− H2-M^−Ii^−.
(§1) Flow cytometry analysis. Monoclonal antibodies specific for CD4(RM4-5), CD8(53-6.7), VβB8(F23.1), CD69(H1.2F3), CD44(IM7) and CD62L(MEL-14) were purchased from PharMingen (San Diego, Calif.) and used according to manufacturer's recommendations. Cells were analyzed using a FACSCalibur instrument (Becton Dickinson, San Jose, Calif.) and CellQuest software. For intracellular stain cells were first stained for CD4 and CD8, fixed in 2% paraformaldehyde, permeabilized in 0.1% Tween-20 and stained with anti-bcl-2 antibody (Pharmingen) according to manufacturer instruction.
(§2) Peptide injections and surgical procedures. TCR^TgTCRα^− and TCR^TgTCRαH2-M^−Ii^− were injected i.p. with agonist and control peptides dissolved in PBS. After indicated time mice were sacrificed, thymus and lymph nodes were collected and single cell suspensions were prepared. Pups were injected with 2 μg of peptide subcutaneously 12-24 hours after birth and thymi were transplanted into recipient mice 24 hours after injection. 5-8 week old TCR^TgTCRα^− H2-M^−Ii^− mice were used for thymectomy or as thymic transplant recipients. Surgical procedures were performed as described (Coligan et al., 1997). Mice were handled according with the institutional guidance.

[2] = system: TCR^TgTCRα^− lymph node cells; assay: Proliferation of TCR transgenic lymph node cells stimulated with agonist peptides ([3H]thymidine incorporation); format: cell-based, mouse; conditions: for recognition by the transgenic TCR / stimulation of transgenic cells: peptides presented by irradiated C57BL6 splenocytes; for agonist potency / agonist properties: in vitro stimulation of transgenic T cells
Procedure: Antigen response of TCR transgenic cells. Proliferation of lymph node cells isolated from TCR^TgTCRα^−and TCR^TgTCRα^−2-M^−Ii^− mice injected with the selecting peptide was measured in response to antigen. Response of the TCR^TgTCRα^− lymph node cells to different agonist peptides was measured by proliferation assay in a 96-well plate. 10^5 responder cells were stimulated with peptides presented by 5×10^5 irradiated C57BL6 splenocytes. Agonist peptides were used at concentrations of 0.01, 0.1, 0.5, 1.0, 2.5, 5.0, 10.0 and 20.0 μM. After 3 days cells were pulsed with 1 μCi of [^3H]thymidine added to each well and after 18 hours thymidine incorporation was measured. The sequences of peptides used were: PCC50V (AEGFSYTVANKNKGIT), PCC50L (AEGFSYTLANKNKGIT), PCC50V54A (AEGFSYTVANKAKGIT), PCC46A49A50V54A (AEGASYAVANKAKGIT), PCC50F54A (AEGFSYTFANKAKGIT), neutral ceramidase (AGFFQYTLYILASEG) and IgGVH (NADFKTPATLTVDKA). All peptides were synthesized by FMOC (fluorenyl methoxycarbonyl) chemistry and purified by reversed-phase high-performance liquid chromatography. To compare the antigenic response of CD4^+ TCR Tg cells lymph node cells were collected from TCR^TgTCRα^− and TCR^TgTCRα^−H2-M^−Ii^− mice two weeks after peptide injection. Single cell suspensions were prepared and CD4^+ cells were sorted using magnetic beads coated with anti CD4 antibodies (MACS). Purity of sorted cells exceeded 85%. 2×10^4 of purified CD4^+ cells were used in proliferation assay. Cells were stimulated with increasing concentrations of agonist peptides presented by APCs from wild type or H2-M^−Ii^− mice. IgGVH derived peptide (20 μM) was used as a negative control. Peptides were presented by irradiated splenocytes from a C57BL6 mouse. Proliferation was measured after 3 days by thymidine incorporation by pulsing cells with 1 μCi of [^3H] thymidine for 18 hours. Antagonism assay was done by prepulsing 5×10^5 antigen-presenting cells per well for 2 hr. with 5 μM of the antigenic peptide PCC50V54A, washing, and then exposing them to varying concentrations of peptide analogs with 2×10^4 purified CD4^+ TCR^Tg lymphocytes as responder cells (Lyons et al., 1996). For antagonism assays the percent of proliferation inhibition was calculated as 100-100*(thymidine incorporation in the presence of antagonist/thymidine incorporation in the absence of antagonist) (Lyons et al., 1996).

[3] = system: transgenic thymocytes; assay: Negative selection of transgenic thymocytes after i.p. peptide injection into TCR^TgTCRα^− mice (wild type A^b); format: in vivo, mouse; conditions: 24 hours; for negative selection / deletion of transgenic thymocytes: 200 μg/mouse i.p.
Procedure: as §1, §2
Characterization of peptide agonists for the PCC specific transgenic αβTCR. To examine the role of peptides during positive selection in vivo, the inventors generated transgenic mice expressing class II restricted TCR specific for analogs of a pigeon cytochrome C peptide PCC(43-58) presented by the A molecule (Kraj et al., 2001). This receptor recognizes analogs of PCC(43-58) in which aspartic acid in position 50 is replaced by amino acids with neutral/hydrophobic (PCC50V, PCC50V54A, PCC46A49A50V54A, PCC50L, PCC50F) side chains (FIG. 6 and FIG. 9). The TCR transgenic mice were backcrossed to C57BL6 TCRα^− knockout mice so that almost all T cells expressing transgenic TCR become CD4^+ T cells (FIG. 4A and FIG. 10A). Initially, the inventors examined the capacity of agonist peptides to induce negative selection of transgenic T cells.

[4] = system: lymph node cells; assay: Repopulation of peripheral lymph nodes in peptide-injected TCR^TgTCRα^−H2-M^−Ii^− mice; format: in vivo, mouse; conditions: for percentage of CD4^+ positive cells (lymph node): analyzed 12 days after injection
Procedure: as §1, §2

[5] = system: peptide selected CD4^+ cells; assay: Antigen response (proliferation) of lymph node CD4^+ cells from peptide-injected TCR^TgTCRα^−H2-M^−Ii^− mice; format: cell-based, mouse
Procedure: Antigen response of TCR transgenic cells. Proliferation of lymph node cells isolated from TCR^TgTCRα^−and TCR^TgTCRα^−2-M^−Ii^− mice injected with the selecting peptide was measured in response to antigen. Response of the TCR^TgTCRα^− lymph node cells to different agonist peptides was measured by proliferation assay in a 96-well plate. 10^5 responder cells were stimulated with peptides presented by 5×10^5 irradiated C57BL6 splenocytes. Agonist peptides were used at concentrations of 0.01, 0.1, 0.5, 1.0, 2.5, 5.0, 10.0 and 20.0 μM. After 3 days cells were pulsed with 1 μCi of [^3H]thymidine added to each well and after 18 hours thymidine incorporation was measured. The sequences of peptides used were: PCC50V (AEGFSYTVANKNKGIT), PCC50L (AEGFSYTLANKNKGIT), PCC50V54A (AEGFSYTVANKAKGIT), PCC46A49A50V54A (AEGASYAVANKAKGIT), PCC50F54A (AEGFSYTFANKAKGIT), neutral ceramidase (AGFFQYTLYILASEG) and IgGVH (NADFKTPATLTVDKA). […] Proliferation was measured after 3 days by thymidine incorporation by pulsing cells with 1 μCi of [^3H] thymidine for 18 hours. […] For antagonism assays the percent of proliferation inhibition was calculated as 100-100*(thymidine incorporation in the presence of antagonist/thymidine incorporation in the absence of antagonist) (Lyons et al., 1996).

[6] = system: OT-II transgenic thymocytes; assay: Selection of OT-II transgenic thymocytes in OT-II TCRα^−→TCRα^−H2M^−Ii^− chimeras after peptide injection; format: in vivo, mouse
From the text: OT-II agonist peptide may be used for positive selection of transgenic CD4^+ cells. Injection of a low dose of agonist peptides restores positive selection of OT-II transgenic CD4^+ T cells in […] →TCRα^−2-M^−Ii^− chimeras. OT-II transgenic mice (C57BL/6TgN(TcrOva)) express a Class II restricted T cell receptor for ovalbumin residues 323-339 in the context of H-2^b. To determine if the experimental approach can be applied to other transgenic CD4^+ T cells, radiation chimeras were generated where TCRα^−H2-H2-M^−Ii^− mice were lethally irradiated and reconstituted with fetal liver from OT-II^TgTCRα^− mice. In these chimeras the development of OT-II^TgTCRα^− thymocytes is arrested at the CD4^+CD8^+ stage due to the lack of endogenous selecting peptides. After 8 weeks chimeras were injected once with different doses of the agonist Ova(323-339) peptide, which is a peptide present in the ovalbumin protein.

## CC[C@H](C)[C@H](NC(=O)CNC(=O)[C@H](CCCCN)NC(=O)[C@H](CC(N)=O)NC(=O)[C@H](CCCCN)NC(=O)[C@H](CC(N)=O)NC(=O)[C@H](C)NC(=O)[C@H](CCC(=O)O)NC(=O)[C@@H](NC(=O)[C@H](Cc1ccc(O)cc1)NC(=O)[C@H](CO)NC(=O)[C@H](Cc1ccccc1)NC(=O)CNC(=O)[C@H](CCC(=O)O)NC(=O)[C@H](C)N)[C@@H](C)O)C(=O)N[C@H](C(=O)O)[C@@H](C)O [PCC50E] (H-AEGFSYTEANKNKGIT-OH)
[1]; 3 μg antagonist + 3 μg PCC50V54A, four days later
  number of CD4^+ thymocytes positively selected by PCC50V54A on co-injection of antagonist: significantly reduced

## AEGASYAVANKAKGIT [PCC46A49A50V54A, analog of PCC(43-58); agonist]
[1]
  positive selection of transgenic thymocytes: restored positive selection
[2]
  recognition by the transgenic TCR / stimulation of transgenic cells: recognizes

## AEGFSYTFANKAKGIT [PCC50F54A, analog of PCC(43-58); agonist]
[1]
  positive selection of transgenic thymocytes: restored positive selection
[2]
  recognition by the transgenic TCR / stimulation of transgenic cells: stimulate

## AEGFSYTLANKNKGIT [PCC50L, analog of PCC(43-58)]
[3]
  negative selection / deletion of transgenic thymocytes: induced profound negative selection
[1]
  positive selection of transgenic thymocytes: restored positive selection
[2]
  agonist potency / agonist properties: Strong agonists
  recognition by the transgenic TCR / stimulation of transgenic cells: recognizes; also recorded: stimulate

## AGFFQYTLYILASEG [neutral ceramidase]
[4]; after i.p. injection, about two weeks
  CD4^+ cells in peripheral lymph nodes: appeatence of CD4^+ lymphocytes in the peripheral lymph nodes
[4]
  percentage of CD4^+ positive cells (lymph node): 7.6±1.8 percentage
[5]
  response of peptide selected CD4^+ cells to agonist peptides in vitro: weakly proliferated; also recorded: respond in vitro
[1]; 50 μg i.p.
  positive selection of transgenic CD4^+ thymocytes: weak positive selection; also recorded: mediates positive selection
  percentage of CD4^+ single positive cells (thymus): 1.7±0.6 percentage
[2]
  agonist potency / agonist properties: weak agonist

## AEGFSYTVANKNKGIT [PCC50V, analog of PCC(43-58)]
[3]; 20 μg i.p., thymus cellularity, annexin V, TUNNEL
  negative selection of transgenic thymocytes: did not induce negative selection
[3]
  negative selection / deletion of transgenic thymocytes: induced only marginal deletion; also recorded: induced only limited deletion
[1]
  positive selection of transgenic thymocytes: restored positive selection
[2]
  agonist potency / agonist properties: moderate agonist
  recognition by the transgenic TCR / stimulation of transgenic cells: recognizes; also recorded: stimulate

## Ova(323-339): peptide present in the ovalbumin protein; agonist for the OT-II TCR (KISQAVHAAHAEINEAG; UniProt P01012 323-339, looked up, fragment)
[6]; high dose (100 μg and above)
  negative selection of transgenic thymocytes: induced negative selection
[6]; low dose (5-20 μg)
  selection of CD4^+ thymocytes: induced selection of a significant number of CD4^+ thymocytes
[6]; mouse, in vivo
  response of selected thymocytes to selecting peptide: continued to respond to stimulation by selecting peptide; also recorded: retain their ability to respond to selecting peptide
[6]; single injection of 10 μg, 48 and 72 hours
  selection of transgenic CD4^+ thymocytes: initiates selection of transgenic CD4^+Vβ5^+ thymocytes
[1]
  effect on thymic selection: had no effect on thymic selection

## NADFKTPATLTVDKA [IgGVH, reference compound]
[4]
  percentage of CD4^+ positive cells (lymph node): 2.4±0.8 percentage
[1]; 50 μg i.p.
  percentage of CD4^+ single positive cells (thymus): 0.8±0.4 percentage
[1]
  effect on thymic selection: had no effect on thymic selection
